Assay results as given in PubChem BioAssay (NCI).
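Assay format: 96-well plates, 48-hour exposure. Abbreviation: GI50, concentration required for 50% inhibition of growth. TGI: concentration producing complete growth inhibition.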

Assays:
Assay in all cases: NCI-60 cell line screen, 48 h
[1] = test system: NCI-H522 lung
[2] = test system: UO-31 renal
[3] = test system: SK-OV-3 ovarian
[4] = test system: 786-0 renal
[5] = test system: ACHN renal
[6] = test system: SW-620 colon
[7] = test system: NCI-H23 lung
[8] = test system: SK-MEL-5 melanoma
[9] = test system: SF-295 CNS
[10] = test system: MDA-MB-231 breast
[11] = test system: NCI-H226 lung
[12] = test system: SK-MEL-28 melanoma
[13] = test system: SF-268 CNS
[14] = test system: NCI-H460 lung
[15] = test system: UACC-62 melanoma
[16] = test system: KM12 colon
[17] = test system: IGROV1 ovarian
[18] = test system: OVCAR-4 ovarian
[19] = test system: NCI/ADR-RES ovarian
[20] = test system: SR leukemia
[21] = test system: HCC-2998 colon
[22] = test system: SK-MEL-2 melanoma
[23] = test system: BT-549 breast
[24] = test system: OVCAR-5 ovarian
[25] = test system: COLO 205 colon
[26] = test system: M14 melanoma
[27] = test system: HOP-92 NSCLC
[28] = test system: SN12C renal
[29] = test system: MDA-MB-435
[30] = test system: HCT-15 colon
[31] = test system: OVCAR-3 ovarian
[32] = test system: TK-10 renal
[33] = test system: PC-3 prostate
[34] = test system: SF-539 CNS
[35] = test system: RXF 393 renal
[36] = test system: MALME-3M melanoma
[37] = test system: SNB-75 CNS
[38] = test system: U251 CNS
[39] = test system: LOX IMVI melanoma
[40] = test system: OVCAR-8 ovarian
[41] = test system: MCF7 breast
[42] = test system: UACC-257 melanoma
[43] = test system: RPMI-8226 leukemia
[44] = test system: DU-145 prostate
[45] = test system: CAKI-1 renal
[46] = test system: T-47D breast
[47] = test system: CCRF-CEM leukemia
[48] = test system: HOP-62 NSCLC
[49] = test system: MOLT-4 leukemia
[50] = test system: HCT-116 colon
[51] = test system: SNB-19 CNS
[52] = test system: EKVX NSCLC
[53] = test system: A549 NSCLC
[54] = test system: HT29 colon

## O=C(COc1nc2ccccc2nc1-c1ccccc1)Nc1ccc(Cl)cc1
[1]
  GI50: 3.5 µM
  TGI: 28.6 µM
[2]
  GI50: 17.1 µM
  TGI: > 100 µM
[3]
  GI50: 47.6 µM
  TGI: > 100 µM
[4]
  GI50: 14.3 µM
  TGI: 71.3 µM
[5]
  GI50: 14.4 µM
  TGI: 37.9 µM
[6]
  GI50: 25.7 µM
  TGI: > 100 µM
[7]
  GI50: 24.9 µM
  TGI: > 100 µM
[8]
  GI50: 4.17 µM
  TGI: 19.7 µM
[9]
  GI50: 5.09 µM
  TGI: 40.1 µM
[10]
  GI50: 15.1 µM
  TGI: 65 µM
[11]
  GI50: 10.2 µM
  TGI: 49.1 µM
[12]
  GI50: 18.7 µM
  TGI: > 100 µM
[13]
  GI50: 18.5 µM
  TGI: > 100 µM
[14]
  GI50: 9.79 µM
  TGI: 77.8 µM
[15]
  GI50: 12.9 µM
  TGI: 67.7 µM
[16]
  GI50: 8.38 µM
  TGI: > 100 µM
[17]
  GI50: 14.3 µM
  TGI: 49.4 µM
[18]
  GI50: 27.7 µM
  TGI: > 100 µM
[19]
  GI50: 4.46 µM
  TGI: > 100 µM
[20]
  GI50: 6.54 µM
  TGI: > 100 µM
[21]
  GI50: 15.6 µM
  TGI: > 100 µM
[22]
  GI50: 15.1 µM
  TGI: 58 µM
[23]
  GI50: 33.6 µM
  TGI: > 100 µM
[24]
  GI50: 11 µM
  TGI: > 100 µM
[25]
  GI50: 15.5 µM
  TGI: > 100 µM
[26]
  GI50: 11.4 µM
  TGI: 80.7 µM
[27]
  GI50: 8.77 µM
  TGI: 36.7 µM
[28]
  GI50: 27.4 µM
  TGI: > 100 µM
[29]
  GI50: 18.4 µM
  TGI: > 100 µM
[30]
  GI50: 15.1 µM
  TGI: > 100 µM
[31]
  GI50: 5.56 µM
  TGI: 36.9 µM
[32]
  GI50: 15.1 µM
  TGI: 76.8 µM
[33]
  GI50: 9.99 µM
  TGI: > 100 µM
[34]
  GI50: 14.5 µM
  TGI: 45.4 µM
[35]
  GI50: 29.3 µM
  TGI: 80 µM
[36]
  GI50: 20.9 µM
  TGI: 66.3 µM
[37]
  GI50: 27.7 µM
  TGI: > 100 µM
[38]
  GI50: 13.2 µM
  TGI: 56.4 µM
[39]
  GI50: 15.7 µM
  TGI: 49.2 µM
[40]
  GI50: 11.3 µM
  TGI: > 100 µM
[41]
  GI50: 36.8 µM
  TGI: > 100 µM
[42]
  GI50: 50.1 µM
  TGI: > 100 µM
[43]
  GI50: 23.1 µM
  TGI: > 100 µM
[44]
  GI50: 54.9 µM
  TGI: > 100 µM
[45]
  GI50: 9.04 µM
  TGI: > 100 µM
[46]
  GI50: 37.5 µM
  TGI: > 100 µM
[47]
  GI50: 17.3 µM
  TGI: > 100 µM
[48]
  GI50: 11.9 µM
  TGI: 40.2 µM
[49]
  GI50: 12.6 µM
  TGI: > 100 µM
[50]
  GI50: 6.23 µM
  TGI: 27.8 µM
[51]
  GI50: 21.6 µM
  TGI: 89.1 µM
[52]
  GI50: 26.9 µM
  TGI: > 100 µM
[53]
  GI50: 27.8 µM
  TGI: > 100 µM
[54]
  GI50: 11.4 µM
  TGI: > 100 µM
